Results published in ChEMBL document CHEMBL1201862, “PubChem BioAssay data set” (2004).
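Following 48 hours of exposure in 96-well plates, responses at five concentrations were used to interpolate endpoints linearly. The concentration for 50% growth inhibition is given as GI50.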 The source made the active and inactive calls. Rule as the data show it: active = GI50 up to about 1.1 µM and inactive = higher. Where a SMILES comes first, the peptide text is derived from it.

Experiments:
Assay in all cases: growth of human tumour cells (NCI), 48 h
K562 = tested on: K562
CAKI-1 = tested on: CAKI-1
MDA-N = tested on: MDA-N
LOX IMVI = tested on: LOX IMVI
SN12C = tested on: SN12C
SNB-75 = tested on: SNB-75
OVCAR-4 = tested on: OVCAR-4
SF-295 = tested on: SF-295
786-0 = tested on: 786-0
ACHN = tested on: ACHN
COLO 205 = tested on: COLO 205
A549 = tested on: A549
T47D = tested on: T47D
SF-268 = tested on: SF-268
RPMI-8226 = tested on: RPMI-8226
SW-620 = tested on: SW-620
Malme-3M = tested on: Malme-3M
SF-539 = tested on: SF-539
MOLT-4 = tested on: MOLT-4

Measured: GI50

Cn1cnc([N+](=O)[O-])c1Sc1nc(N)nc2c1ncn2Cc1ccccc1
inactive: K562 20.5 µM | CAKI-1 13.3 µM | MDA-N 19.4 µM | LOX IMVI 19.6 µM | SN12C 15.8 µM | SNB-75 20.4 µM | OVCAR-4 20.8 µM | SF-295 44.9 µM | 786-0 19 µM | ACHN 15.3 µM | COLO 205 16.2 µM | A549 25.5 µM | T47D 13.8 µM | SF-268 16.5 µM | RPMI-8226 19 µM | SW-620 22.9 µM | Malme-3M 13.2 µM

CCOP(=O)(CN1CCNCCN(CP(=O)(OCC)OCC)CC1)OCC
inactive: K562 > 100 µM | CAKI-1 > 100 µM | MDA-N > 100 µM | LOX IMVI > 100 µM | SF-539 > 100 µM | SN12C > 100 µM | SNB-75 > 100 µM | OVCAR-4 > 100 µM | SF-295 > 100 µM | 786-0 > 100 µM | ACHN > 100 µM | COLO 205 > 100 µM | A549 > 100 µM | T47D > 100 µM | SF-268 > 100 µM | RPMI-8226 > 100 µM | SW-620 > 100 µM | MOLT-4 > 100 µM

CCOc1cc(NC(C)=O)ccc1C(=O)NN1C(=O)C(Oc2ccccc2)C1c1ccc(O)c(OC)c1 (stereo unspecified)
inactive: K562 31.3 µM | CAKI-1 54.8 µM | MDA-N 33.6 µM | LOX IMVI 29.8 µM | SF-539 28.1 µM | SN12C 28 µM | SNB-75 44.6 µM | OVCAR-4 31.3 µM | SF-295 66.4 µM | 786-0 43.8 µM | ACHN 93.5 µM | COLO 205 30.3 µM | A549 56.5 µM | T47D 14.4 µM | RPMI-8226 25.5 µM | SW-620 77.4 µM | MOLT-4 12.9 µM

Cc1ccc(C2=NN=C3C(c4ccccc4)=Nc4ccccc4N3C2)cc1
inactive: K562 4.61 µM | CAKI-1 19.7 µM | MDA-N 32.9 µM | LOX IMVI 5.65 µM | SF-539 19.1 µM | SN12C 15.5 µM | OVCAR-4 3.18 µM | SF-295 12 µM | 786-0 6.56 µM | ACHN 16.7 µM | COLO 205 9.77 µM | A549 27.7 µM | T47D 27.2 µM | SF-268 4.49 µM | RPMI-8226 5.98 µM | SW-620 5.51 µM | MOLT-4 1.34 µM | Malme-3M 5.38 µM

CCOC(=O)c1c(C)n(C)c2c1cc(O)c1[nH]c3c(c12)CCCC3
inactive: K562 17.3 µM | CAKI-1 28.4 µM | MDA-N 15.6 µM | LOX IMVI 14.5 µM | SF-539 19.2 µM | SN12C 24.2 µM | OVCAR-4 10.8 µM | SF-295 39.1 µM | 786-0 15.6 µM | ACHN 27.4 µM | COLO 205 10.8 µM | A549 18 µM | T47D 18.2 µM | SF-268 2 µM | RPMI-8226 3.93 µM | SW-620 20.8 µM | MOLT-4 16.9 µM | Malme-3M 7.66 µM

O=c1c2cc3c(=O)n4c(cc(-c5ccccc5)c5cc(Cl)ccc54)nc3cc2nc2cc(-c3ccccc3)c3cc(Cl)ccc3n12
inactive: K562 > 100 µM | CAKI-1 > 100 µM | MDA-N > 100 µM | LOX IMVI > 100 µM | SF-539 > 100 µM | SN12C > 100 µM | SNB-75 36.8 µM | SF-295 > 100 µM | 786-0 64.1 µM | ACHN 76.6 µM | COLO 205 > 100 µM | A549 > 100 µM | T47D > 100 µM | SF-268 > 100 µM | RPMI-8226 > 100 µM | SW-620 > 100 µM | MOLT-4 > 100 µM

CC(=O)C(=NNc1ccc(-n2c(C)nc3ccc(Br)cc3c2=O)cc1)C(C)=O
inactive: K562 > 100 µM | CAKI-1 > 100 µM | MDA-N > 100 µM | LOX IMVI > 100 µM | SF-539 47.3 µM | SN12C > 100 µM | SNB-75 20.7 µM | SF-295 98.6 µM | 786-0 33.7 µM | ACHN 98.4 µM | COLO 205 > 100 µM | A549 > 100 µM | T47D > 100 µM | SF-268 56.4 µM | RPMI-8226 50.4 µM | SW-620 > 100 µM | MOLT-4 > 100 µM

COc1cccc(CCn2c(N)c(C(=O)O)c3ccc([N+](=O)[O-])cc3c2=O)c1
inactive: K562 67.8 µM | CAKI-1 43.5 µM | MDA-N 30.3 µM | LOX IMVI 35.2 µM | SN12C 21.8 µM | SNB-75 24.9 µM | OVCAR-4 54 µM | SF-295 38.1 µM | 786-0 31.1 µM | ACHN 33.7 µM | COLO 205 20.7 µM | A549 27.8 µM | T47D 29.3 µM | SF-268 37.7 µM | RPMI-8226 22.9 µM | SW-620 > 100 µM | MOLT-4 54.1 µM | Malme-3M 37.3 µM

N/C(=N\Nc1ccc(Cl)cc1)c1cnccn1
inactive: K562 3.85 µM | CAKI-1 > 100 µM | MDA-N 10.4 µM | LOX IMVI 84.1 µM | SN12C > 100 µM | SNB-75 > 100 µM | OVCAR-4 29.1 µM | SF-295 13.2 µM | 786-0 68.7 µM | ACHN > 100 µM | COLO 205 18 µM | A549 > 100 µM | T47D 13 µM | SF-268 > 100 µM | RPMI-8226 78.3 µM | SW-620 > 100 µM | MOLT-4 39.8 µM | Malme-3M 95.9 µM

N#CC(NNC(=O)c1c(Cl)c(Cl)c(Cl)c(Cl)c1-c1nc2cc(C(=O)c3ccccc3)ccc2[nH]1)c1cccc(Oc2ccccc2)c1 (stereo unspecified)
inactive: K562 27.5 µM | CAKI-1 35.2 µM | MDA-N 15.4 µM | LOX IMVI 37.8 µM | SF-539 20.7 µM | SN12C 23.9 µM | SNB-75 23.7 µM | OVCAR-4 18.6 µM | SF-295 28.5 µM | 786-0 22 µM | ACHN 25.6 µM | COLO 205 20.8 µM | A549 30.9 µM | T47D 18.9 µM | RPMI-8226 34.8 µM | SW-620 27.7 µM | MOLT-4 24.3 µM

Cc1ccc(Nc2sc(C)cc2C#N)c([N+](=O)[O-])c1
inactive: K562 > 100 µM | CAKI-1 > 100 µM | MDA-N > 100 µM | SF-539 > 100 µM | SN12C > 100 µM | SNB-75 > 100 µM | OVCAR-4 > 100 µM | SF-295 > 100 µM | 786-0 > 100 µM | ACHN > 100 µM | COLO 205 > 100 µM | A549 > 100 µM | T47D > 100 µM | SF-268 > 100 µM | RPMI-8226 > 100 µM | SW-620 > 100 µM | MOLT-4 > 100 µM | Malme-3M > 100 µM

C=C1C(C2(C)C(OC(C)=O)CC(=O)OC(C)(COC(C)=O)C2CC(=O)OC)C(OC=O)C(OC(=O)C(O)C(C)CC)C2(C)C(c3ccoc3)CC(=O)C12O (stereo unspecified)
inactive: K562 4.49 µM | CAKI-1 3.27 µM | MDA-N 7.26 µM | LOX IMVI 3.82 µM | SF-539 4.42 µM | SN12C 10.8 µM | SNB-75 3.57 µM | OVCAR-4 6.28 µM | SF-295 4.32 µM | 786-0 5.98 µM | ACHN 4.2 µM | COLO 205 3.66 µM | A549 3.56 µM | T47D > 57.7 µM | SF-268 3.72 µM | RPMI-8226 > 100 µM | SW-620 2.08 µM | MOLT-4 > 100 µM

CCn1c(=O)ccc2ccc(N(CCO)CCO)nc21
inactive: K562 > 100 µM | CAKI-1 > 100 µM | MDA-N > 100 µM | SN12C > 100 µM | SNB-75 > 100 µM | OVCAR-4 > 100 µM | SF-295 > 100 µM | 786-0 > 100 µM | ACHN > 100 µM | COLO 205 > 100 µM | A549 > 100 µM | T47D > 100 µM | SF-268 > 100 µM | RPMI-8226 > 100 µM | SW-620 > 100 µM | MOLT-4 97.7 µM | Malme-3M > 100 µM

CCOC(=O)c1nnsc1NC(=O)Nc1ccc(Cc2ccc(NC(=O)Nc3snnc3C(=O)OCC)cc2)cc1
inactive: K562 > 100 µM | CAKI-1 41 µM | MDA-N 69.3 µM | SN12C 28.3 µM | SNB-75 88.5 µM | OVCAR-4 35.6 µM | SF-295 70 µM | 786-0 18.2 µM | ACHN > 100 µM | COLO 205 > 100 µM | A549 46.1 µM | T47D 45.8 µM | SF-268 > 100 µM | RPMI-8226 > 100 µM | SW-620 > 100 µM | MOLT-4 > 100 µM | Malme-3M 37.2 µM

CC(C)CC(NC(=O)C(Cc1ccccc1)NC(=O)C(Cc1c[nH]c2ccccc12)NC(=O)CNC(=O)C(N)Cc1ccc(O)cc1)C(=O)O (stereo unspecified) (H-YGWFL-OH; configuration not given here)
inactive: CAKI-1 34.9 µM | MDA-N 35.4 µM | SF-539 33.8 µM | SN12C 48.6 µM | SNB-75 30.8 µM | OVCAR-4 30.2 µM | SF-295 49.7 µM | 786-0 23.6 µM | ACHN 44.5 µM | COLO 205 16.4 µM | A549 37.4 µM | T47D 25.6 µM | SF-268 47.3 µM | RPMI-8226 24.5 µM | MOLT-4 59.7 µM | Malme-3M 21.2 µM
